“Also recorded” adds a separate entry of the source.
Columns and labels:
[1] = system: Karpas 422; assay: Cell death / viability, PrestoBlue HS (resazurin) assay, Karpas 422; format: cell-based; details: FIG. 6 Panel B, ER-positive cells with amplified/rearranged BCL6, compared with BI3812
Experimental: (§1) Note that the higher concentrations lead to a reduction in activation of the reporter consistent with the “hook effect” characteristic of bifunctional molecules as they saturate both binding sites.(PMID: 8752278; PMID:21406691), in this case the BCL6 protein and the estrogen receptor. […] Panel C. […] Viability was measured using the PrestoBlue HS (resazurin) assay for viable cells (1:10 ratio in media and 1 h incubation).
(§2) These reporter systems and direct measures of cancer cell killing were used to assess the TF-CIP molecules made by rational design that are illustrated in FIG. 4. As shown in Panel A, addition of ER-TF-CIP6 activates GFP expression by the BCL reporter with an EC50 of about 1 to 10 micromolar. […] Note that the higher concentrations lead to a reduction in activation of the reporter consistent with the “hook effect” characteristic of bifunctional molecules as they saturate both binding sites. (PMID: 8752278; PMID:21406691), in this case the BCL6 protein and the estrogen receptor. […] Viability was measured using the PrestoBlue HS (resazurin) assay for viable cells (1:10 ratio in media and 1 h incubation).

[2] = system: HEK293 cells; assay: Cell death / viability, PrestoBlue HS (resazurin) assay, HEK293; format: cell-based; details: FIG. 6 Panel C
Experimental: as §1, §2

[3] = system: ER-negative breast cancer cell lines; assay: Cell death / viability, PrestoBlue HS (resazurin) assay, ER-negative breast cancer cell lines; format: cell-based; details: FIG. 6 Panels D and E; two ER-negative or low-ER breast cancer cell lines
Experimental: as §1, §2

[4] = system: BCL6 reporter; assay: BCL6 reporter GFP activation; format: cell-based, human; details: FIG. 6 Panel A
Source text: FIGS. 5A to 5C illustrate the development of reporters for activation of cell death or pro-apoptotic pathways by the disinhibited BCL6 protein or the pro-apoptotic protein FOXO3A. FIG. 5A: The BCL6 reporter consists of an array of BCL6 binding sites taken from different pro-apoptotic genes including TP53, PUMA, BIM and others. These genes have the ability to kill cells when simply overexpressed (PMID:11463391). Ten base pairs on either side of the actual human BCL6 binding site are included to take advantage of the fact that transcriptional specificity is due to the concerted binding of proteins in an enhanceosome (PMID:9510247, 18206362).
as §1
FIGS. 5A to 5C provide examples of how one measures the effect of a TF-CIP to allow chemical optimization of linker and ligands. […] Thus, the reporter system is multiplexed and useful for defining and quantitating apoptotic responses in many different cell types. […]

SMILES: CNC(=O)COc1cc2cc(Nc3nc(N4CCC(C(=O)NCCOCCOCCNC(=O)CO/N=C5\CCC6C7CCc8cc(O)ccc8C7CC[C@]56C)CC4)ncc3Cl)cc(OC)c2n(C)c1=O (stereo partly drawn) [ER-TF-CIP6]
- induction of cell death [1]: more effectively than B13812
- induction of cell death ([1]; listed as ER-TFCIP6): more effectively than BI3812
- induction of cell death [2]: induces cell death
- cell killing [3]: does not kill; also recorded: are not killed
- potency in BCL6 reporter relative to BI3812 ([4]; comparison with parent compound BI3812): substantially lower concentration than that of the parent compound
- EC50 ([4]; Homo sapiens, read-out: EC50 of activation of GFP expression by the BCL reporter): 1 to 10 µM

— patent publication US20230304024A1, “Modulation of Gene Expression Via Transcription Factor-Chemically Induced Proximity (TF-CIP)” (The Board of Trustees of the Leland Stanford Junior …, priority 2020, published 2023)
